According to US9820990B2, “Methods of treating disorders associated with protein aggregation” (University of Pittsburgh—Of the Commonwealth System of …, priority 2009, dated 2017):
Entries after “also recorded” stand apart in the source; their conditions may differ. Structures can show the parent of a compound that is named as a salt. Where two headings read alike, the source gives them in different places.

Legend:
C. elegans = conditions: 0-100 mM, 4 hours, SYTOX Green uptake
Method: Animals were washed 5 times with M9 media and stained with 2 μM SYTOX™ Green (Invitrogen) for 5 minutes at room temperature (84). Approximately 50 animals/well were dispensed into an optical bottom black walled 96 well plate (Nunc Thermo Fisher Scientific, Rochester, N.Y., USA). Wells were imaged using the ArrayScan VTI over the entire area of the well in brightfield, red (TRITC) and green (GFP) channels at 50× magnification. The total number of animals and the number of dead bodies were determined by counting red and green spots, respectively. Data from SpotDetector algorithm were confirmed by manual counting of the live and dead animals. Percent dead=(the number of green objects detected/total number of animals)×100.
To determine whether the system could discriminate dead from live intestinal cells, we scanned and analyzed young adult animals exposed to different concentrations of NaAz in the presence SYTOX® Green.

ATZ = conditions: mouse model of AT deficiency; cited from earlier work
sGFP::ATZ [1] = experiment: Hit compound characterization: dose-response in the sGFP::ATZ HCS assay; assay type: in vivo, C. elegans; parameters: key to dose-dependent response: c: Compound demonstrated a dose-dependent response.; Compound failed to demonstrate a dose-dependent response; conditions: for dose-dependent response: retest at 0-100 μM, 24 or 48 hours; for degradation of aggregated ATZ protein: Caenorhabditis elegans model system; for GFP+ inclusions in ATZ worms: at 10 μM; for effect on sGFP::ATZ accumulation: dose-response, 0-100 μM
Method: Imaging of animals using the ArrayScan VTI: Prior to imaging, worms were anesthetized by adding 30 μl of 0.02 M NaN3 in PBS to each well. Plates were resealed, inverted twice, and incubated for 5 minutes at room temperature. Images were acquired with the ArrayScan VTI HCS Reader fitted with a 2.5× objective and a 0.63× coupler using a 2-channel (TRITC and GFP) assay. Real-time analysis was performed using the SpotDetector BioApplication optimized to quantify fluorescent protein expression in C. elegans. Image acquisition and analysis of a 384-well plate was completed in <45 minutes. The total number of animals in the well was determined by counting the number of red heads (Pmyo-2mRFP) in the TRITC channel. Total spot area or total spot intensity was determined by quantifying the GFP-positive spots in the GFP channel. Total spot area or total spot intensity per animal was determined by dividing the values from the GFP channel by that from the TRITC channel.
Hit compound characterization: Compounds that were identified as potential hits were purchased (if available) and retested for verification. […] Compounds that produced a response in a dose-dependent manner were further tested for a time-dependent response. Compound dose-response curves were performed by dispensing 15 μl of a 4× stock solution into 384-well plates containing 15 μl of assay medium (see above). Thirty-five animals were sorted into each well bringing the volume to ˜60 μl. The final compound concentrations in each well varied from 0-100 μM. Assay plates were incubated in a 22° C. incubator for 24 or 48 hours. Each compound was tested in quadruplicate in at least 2 independent experiments.
Statistical evaluation: Statistical evaluation of data was performed using Prism® (Graphpad Software). The significance of actual and predicted data in FIGS. 12, 14 and 15 was determined using a linear regression analysis and comparing the slope and goodness-of-fit (r2) values. Statistical significance of the spot count, spot area and spot intensity values between N2 (wild-type) and various transgenic lines in FIG. 13 and dose-response in FIG. 17 was determined using an unpaired, one-tailed, Student's t-test.
Compound screen: To test the HCS protocol, a pilot drug screen was performed using the library of pharmacologically active compounds (LOPAC1280™ 1280 compounds). Tight gating parameters for total fluorescence were used to sort 35 young adult Pnhx2sGFP::ATZ animals into wells of 384-well plates containing […] of a LOPAC compound and 0.5% DMSO. Pnhx2sGFP::ATZ animals incubated with 0.5% DMSO served as untreated controls and were placed in the first-two and last-two columns of each plate. In a representative experiment, plate 1 of the LOPAC library was set-up for screening on day 1, and 3 other plates were set-up on the next day. After 24 incubation at 25° C., animals were immobilized by the addition of NaAz and placed in the ArrayScan VTI for automated imaging. To examine for systematic errors, the raw data (total spot area/animal) were depicted as a plate-well scatter plot (FIG. 17A). […] This difference reflects a wider sort-window used to collect animals on day 1 in comparison to that used on day 2. As the average values of the negative controls and that of the sample wells were similar, we combined the control and samples wells for normalization and to identify potential hits using the z-score (FIG. 17B). The ArrayScan VTI reads microtiter plates by rows, alternating from left-to-right, and then right-to-left. For some assays, we noted that the control fluorescence values would drift upwards slightly in rows towards the bottom of the plate. This drift appeared to correlate with an increase in chamber temperature during the scanning period and was minimized by cooling the chamber with a fan or shortening the read times by using 2.5× objective with a 0.6 coupler. Nonetheless, intra-plate variation was controlled for by presenting the data as a B-score (FIG. 17C). […]

sGFP::ATZ [2] = experiment: LOPAC library high-content primary screen for sGFP::ATZ accumulation in transgenic animals; assay type: in vivo, C. elegans; conditions: for Rank-score: 24 h
ATZ in HTO/Z cells = experiment: HTO/Z cells, Western blot analysis for AT; assay type: cell-based, human; conditions: for ATZ levels in the cell line: HTO/Z mammalian cell line model of AT deficiency
Method: The cells were incubated for 48 hrs with fluphenazine in several different concentrations and then subjected to Western blot analysis for AT. […] The effect is evident at doses of 1-10 μM. […] This is different from CBZ which appears to affect autophagic as well as proteasomal degradation.

mCherry::LGG-1 = experiment: Induction of autophagy in transgenic animals expressing Pnhx-2mCherry::lgg-1; assay type: in vivo, C. elegans; conditions: compared with well-fed animals treated with DMSO (diffuse)
Text: FIG. 18A-E. Induction of autophagy by hit compounds. Images of transgenic animals expressing Pnhx-2mCherry:lgg-1 treated with various compounds are shown. Images were acquired using a Nikon instruments TiEclipse widefield light microscope fitted with a 20× Plan Apochromat objective. Images were then deconvolved using Volocity (Perkin Elmer, v 5.3.2). Deconvolved z planes were then merged to a single plane. Well-fed animals treated with DMSO (A) show a diffuse mCherry expression throughout the intestine. […] Starved (E) animals are included as a positive control for autophagy. Scale bar, 50 μm.
Macroautophagy is a cellular process in which a double membrane envelops cytosolic components or organelles (autophagosome) and delivers this material to a lysosome (autophagolysosome) for degradation and recycling (reviewed in 79). LGG-1/LC3/Atg8 is a diffuse cytosolic protein that participates in autophagosome formation and becomes inserted into the autophagosome membrane (80). Upon autophagosome formation, LGG-1 fused to mCherry changes its cytoplasmic distribution pattern from diffuse (lower fluorescence intensity) to punctate (higher fluorescence intensity) (80). To determine whether the imaging system could follow this process, a strain expressing a Pnhx-2mCherry::lgg-1 transgene was examined after starvation, a potent inducer of intestinal autophagosome formation (81). In well-fed animals, the diffuse cytoplasmic fluorescence in the intestinal cells was well above that of the N2 background (FIGS. 13K-13L, 13O-13Q). To detect mCherry::LGG-1 puncta, the diffuse fluorescence intensity of the well-fed animals was used to calibrate a threshold from which the SpotDetector BioApplication could detect any high-intensity spots. Although basal autophagy in the well-fed animals yielded a few spots (FIG. 13O), the large number of distinct puncta in the starved animals (FIGS. 13M, 13N, 13O-Q) indicated a marked increase in autophagy that was detected best by a statistically significant increase in spot count or total spot intensity per animal (FIGS. 13O and 13Q, respectively). […]

[3] = average of compound rankings by ascending B-score from two independent screens, 50 μM, <110 decreased, >1225 increased sGFP::ATZ inclusions
[4] = among compounds that decreased ATZ accumulation, based on relative rank-scores

With [N-]=[N+]=[N-] [sodium azide] the “number of dead animals” value (C. elegans) was “dose dependent increase”.

For NC(=O)N1c2ccccc2C=Cc2ccccc21 [carbamazepine], the “amount of ATZ accumulated in the liver” value (ATZ) is given as “decrease”.

For CC(=O)c1c(O)c(C)c(O)c(Cc2c(O)c3c(c(C(=O)/C=C/c4ccccc4)c2O)OC(C)(C)C=C3)c1O [rottlerin], the dose-dependent response (sGFP::ATZ [1]) was “rottlerin^c”, the Overall rank-order (sGFP::ATZ [2]; among compounds that increased ATZ accumulation, based on relative rank-scores) was 15 and the Rank-score (sGFP::ATZ [2]; [3]) was 1229.5.

In the case of O=c1[nH]c2ccccc2n1C1CCN(CCCC(c2ccc(F)cc2)c2ccc(F)cc2)CC1 [pimozide, 1-[1-[4,4-bis(4-fluorophenyl)butyl]-4-piperidyl]-1,3-dihydrobenzoimidazol-2-one], the “ATZ levels in the cell line” value (ATZ in HTO/Z cells) is reported as “effective in reducing ATZ levels; also recorded: decreased ATZ”, the “mCherry::LGG-1 distribution pattern (autophagic activity)” value (from here on “mCherry::LGG-1 distribution pattern”) (mCherry::LGG-1) is reported as “markedly punctate distribution pattern indicative of increased autophagic activity” and the “degradation of aggregated ATZ protein” value (sGFP::ATZ [1]) is reported as “able to promote degradation of aggregated ATZ protein”. The “GFP+ inclusions in ATZ worms” value (sGFP::ATZ [1]) was “almost complete elimination of the inclusions”, the “effect on sGFP::ATZ accumulation” value (sGFP::ATZ [1]) was “dose-dependent decrease in sGFP::ATZ accumulation; also recorded: dose-dependant decrease in sGFP::ATZ accumulation; also recorded: dose-dependent effect; also recorded: decreased” and the dose-dependent response (sGFP::ATZ [1]) was “pimozide^c”. The Overall rank-order (sGFP::ATZ [2]; [4]) was 33 and the Rank-score (sGFP::ATZ [2]; [3]) was 107.5.

With ivermectin the dose-dependent response (sGFP::ATZ [1]) was “ivermectin^d”, the Overall rank-order (sGFP::ATZ [2]; [4]) was 1 and the Rank-score (sGFP::ATZ [2]; [3]) was 2.0.

For L(−)-norepinephrine bitartrate, the dose-dependent response (sGFP::ATZ [1]) was “L(−)-norepinephrine bitartrate^d”, the Overall rank-order (sGFP::ATZ [2]; [4]) was 7 and the Rank-score (sGFP::ATZ [2]; [3]) was 36.5.

In the case of CC12C(=O)OC(=O)C1(C)C1CCC2O1 (stereo not shown) [cantharidin, 2,6-Dimethyl-4,10-dioxatricyclo-[5.2.1.02,6]decane-3,5-dione], the “mCherry::LGG-1 distribution pattern” value (mCherry::LGG-1) is reported as “markedly punctate distribution pattern indicative of increased autophagic activity”, the “concentration at which an anti-protein aggregate effect was achieved” value (sGFP::ATZ [1]; C. elegans assay) is reported as 100 µM and the “degradation of aggregated ATZ protein” value (sGFP::ATZ [1]) is reported as “able to promote degradation of aggregated ATZ protein”. For the same compound, the “effect on sGFP::ATZ accumulation” value (sGFP::ATZ [1]) was “dose-dependant decrease in sGFP::ATZ accumulation; also recorded: decreased”, the “effect on sGFP::ATZ accumulation” value (sGFP::ATZ [1]; listed as Cantharidin) was “dose-dependent decrease in sGFP::ATZ accumulation” and the dose-dependent response (sGFP::ATZ [1]) was “cantharidin^c”. The Overall rank-order (sGFP::ATZ [2]; [4]) was 2 and the Rank-score (sGFP::ATZ [2]; [3]) was 2.5.

In the case of CO[C@@]1(NC(=O)CSCC#N)C(=O)N2C(C(=O)O)=C(CSc3nnnn3C)CS[C@@H]21 [cefmetazole sodium], the dose-dependent response (sGFP::ATZ [1]) is reported as “cefmetazole sodium^d”, the Overall rank-order (sGFP::ATZ [2]; [4]) is reported as 9 and the Rank-score (sGFP::ATZ [2]; [3]) is reported as 51.0.

In the case of OCCN1CCN(CCCN2c3ccccc3Sc3ccc(C(F)(F)F)cc32)CC1 [fluphenazine dihydrochloride, 4-[3-[2-(Trifluoromethyl)phenothiazin-10-yl]propyl]-1-piperazineethanol], the “doses at which the decrease in insoluble ATZ is evident” value (ATZ in HTO/Z cells; HTO/Z cells, 48 hrs) is reported as 1 to 10 µM, the “levels of the control GAPDH” value (ATZ in HTO/Z cells; HTO/Z cells, 48 hrs) is reported as “no significant change” and the “soluble ATZ” value (ATZ in HTO/Z cells; HTO/Z cells, 48 hrs) is reported as “increase”. For the same compound, the “insoluble ATZ levels” value (ATZ in HTO/Z cells; HTO/Z cells, 48 hrs, several concentrations) was “dose-dependent decrease”, the “ATZ levels in the cell line” value (ATZ in HTO/Z cells) was “effective in reducing ATZ levels” and the “ATZ levels in the cell line” value (ATZ in HTO/Z cells; listed as fluphenzine hydrochloride) was “decreased ATZ”. For the same compound, the “mCherry::LGG-1 distribution pattern” value (mCherry::LGG-1) was “markedly punctate distribution pattern indicative of increased autophagic activity”, the “degradation of aggregated ATZ protein” value (sGFP::ATZ [1]) was “able to promote degradation of aggregated ATZ protein” and the “GFP+ inclusions in ATZ worms” value (sGFP::ATZ [1]) was “almost complete elimination of the inclusions”. The “effect on sGFP::ATZ accumulation” value (sGFP::ATZ [1]) was “dose-dependent decrease in sGFP::ATZ accumulation; also recorded: dose-dependant decrease in sGFP::ATZ accumulation; also recorded: dose-dependent effect; also recorded: decreased”, the dose-dependent response (sGFP::ATZ [1]) was “fluphenazine dihydrochloride^c” and the Overall rank-order (sGFP::ATZ [2]) was 23. It also gave a Rank-score (sGFP::ATZ [2]; 50 µM) of 81.0.
